From patent US6858633B1, “Substituted 2-arylbenzazole compounds and their use as antitumour agents” (Cancer Research Technology Limited, priority 1999, dated 2005)
Where a name gives a salt, the structure may show the parent alone. Read-outs that look alike come from different tables or passages of the source. One block for each molecule: values may come before it.

Tests used:
[1] = tested on: MCF-7; experiment: In vitro cytotoxicity, 3-day MTT assay, MCF-7; assay type: cell-based, human; settings: for IC50: 3-day MTT assay
Protocol: (§1) In carrying out the following cytoloxicity assays, the method used corresponds substantially to the following example: • Cells were maintained in a continuous logarithmic culture in RMPI 1640 with L-glutamine medium, supplemented with 10% fetal calf serum, penicillin (100 IU/ml) and streptomycin (100 μg/ml). The cells were mildly trypsinized for passage and for use in assays. • On day one, 180 μl of trypsinized tumour cells (5×10^3 ml^−1) were placed in the wells of 96-well, flat-bottom microtiter plates. Columns 1 and 12 were filled with 300 μl medium to protect from evaporation. The plates were incubated for 24 hours at 37° C. and 5% CO2 in air to allow the cells to adhere and resume exponential growth prior to the addition of drugs. The compounds being tested were dissolved in DMSO and stored as 10 mM stock solutions at 4° C., protected from light. […] 20 μl of drug dilution was added to the other wells with the lowest concentration in column 3 and the highest concentration in column 11. The plates were incubated for 72 hours at 37° C. and 5% CO2 in air. Each compound was tested in triplicate. At the time of drug addition, a plate of untreated cells was read to provide an initial optical density value for use in the calculation of the IC50. • On day five the plates were read. 50 μl MTT (1 mg/ml^−1) was added per well and the plates incubated for a further 4 hours. The MTT is metaboliscd to form a blue formazan product. The MTT solution was aspirattd and 125 μl DMSO:glycine buffer (4:1) was added. The plates were placed on a plate shaker until the fornazan crystals had dissolved and absorbance was ready at 550 nm on a plate reader. • For each compound tested, a dose response curve was obtained and the IC50 statue (drug concentration at 50% inhibition of cell growth) was calculated.
(§2) (n=8) for a range of compounds in relation to MCF-7 and MDA 468 cell lines.

[2] = tested on: MDA468; experiment: In vitro cytotoxicity, 3-day MTT assay, MDA468; assay type: cell-based
Protocol: as §1, §2

[3] = tested on: sensitive cell lines; experiment: Biphasic dose-response relationship (second growth phase) in sensitive cell lines; assay type: cell-based
From the text: One feature of the prior art compounds is that they show a biphasic dose-response relationship specifically in sensitive cell lines: cell kill occurs at low nanomolar concentrations of the compounds, followed by a potentially undesirable proliferative response at low micromolar concentrations (termed the “second growth phase”).

[4] = tested on: COLO205 xenografts; experiment: In vivo COLO205 xenograft study (FIG. 2)
[5] = Blood parameters and liver transaminases in xenograft studies; set-up: species or system nude mice; settings: mouse, in vivo
[6] = tested on: ER positive MCF-7 human breast tumor xenografts; settings: for in vivo growth retardation of MCF-7 xenografts: prodrugs
[7] = tested on: ER negative MT-1 human breast tumor xenografts; settings: for in vivo growth retardation of MT-1 xenografts: prodrugs
[8] = Stability in plasma in vitro; assay type: in vitro ADME, rat; settings: hydrochloride salts; rat and other mammalian plasma
[9] = rats, i.v., typical dose 25 mg/kg
[10] = 72 h, asterisked values, IC50 concentration in μM
[11] = surviving mice treated with prodrug

Molecule: 7-Fluoro-2-(4′-imino-3′-methylphenyl)benzothiazole [Ih]
- IC50 ([1]; n=8): 0.00239 µM
- IC50 ([2]; n=8): 0.0103 µM

Molecule: Cc1cc(-c2nc3c(F)cccc3s2)ccc1N [Compound Ia]
- IC50 ([1]; n=8): < 0.0001 µM
- IC50 ([2]; n=8): 0.00013 µM

- melting point: 200 to 202 °C
Molecule: Cc1cc(-c2nc3cc(I)ccc3s2)ccc1N [Compound Iak, 5-Iodo-2-(4′-amino-3′-methylphenyl)benzothiazole]
- IC50 ([1]; Homo sapiens, MCF7, 72 h, n=8): 0.493 µM
- IC50 [2, 10]: 80.9 µM

Molecule: Cc1cc(-c2nc3ccc(F)cc3s2)ccc1NC(=O)C(C)N (centres unmarked) [Iac, 6-Fluoro-2-(4′-amino-3′-Methylphenyl)benzothiazole Alanyl Amide Hydrochloride Salt]
- IC50 ([1]; n=8): 0.044 µM
- IC50 ([2]; n=8): 0.297 µM

Molecule: Cc1cc(-c2nc3ccc(F)cc3s2)ccc1NC(=O)C(N)CCCCN (centres unmarked) [Iae, 6-Fluoro-2-(4′-amino-3′-methylphenyl)benzothiazole Lysyl Amide Dihydrochloride Salt]
- IC50 ([1]; n=8): 0.147 µM
- IC50 ([2]; n=8): 0.328 µM

Molecule: Cc1cc(-c2nc3cc(F)ccc3s2)ccc1NC(=O)C(C)N.Cl (centres unmarked) [Iaf, 5-Fluoro-2-(4′-amino-3′-metbylphenyl)benzothiazole Alanyl Amide Hydrochloride Salt]
- IC50 ([1]; n=8): 0.00589 µM
- IC50 in MCF-7 cells, fold lower than that of other amido prodrugs ([1]; compared with other prodrugs): > 5 fold
- IC50 ([2]; n=8): 0.0377 µM

Molecule: Cc1cc(-c2nc3cccc(I)c3s2)ccc1N [Ial, 7-Iodo-2-(4′-amino-3′-methylphenyl)benzothiazole]
- IC50 ([1]; Homo sapiens, MCF7, 72 h, n=8): 0.0283 µM
- IC50 ([2]; 72 h, n=8): 0.323 µM

- melting point: 219 to 221 °C
Molecule: CC(=O)Nc1ccc(-c2nc3cc(F)ccc3s2)cc1C [Iam, 5-Fluoro-2-(4′-acetamido-3′-methylphenyl)benzothiazole]
- IC50 ([1]; Homo sapiens, MCF7, 72 h, asterisked values, IC50 concentration in μM): 7.64 µM
- IC50 [2, 10]: 5.84 µM

- melting point: 268 to 270 °C
Molecule: N#Cc1cc(-c2nc3cc(F)ccc3s2)ccc1N [Ian, 5-Fluoro-2-(4′-amino-3′-cyanophenyl)benzothiazole]
- IC50 ([1]; Homo sapiens, MCF7, 72 h, n=8): < 0.0001 µM
- IC50 ([2]; 72 h, n=8): < 0.0001 µM

- melting point: 242 to 245 °C
Molecule: Nc1ccc(-c2nc3cc(F)ccc3s2)cc1CO [Iaq, 5-Fluoro-2-(4′-amino-3′-(hydroxymethyl)phenyl)benzothiazole]
- IC50 ([1]; Homo sapiens, MCF7, 72 h, n=8): < 0.0001 µM
- IC50 ([2]; 72 h, n=8): 0.00043 µM

Molecule: Cc1cc(-c2nc3cc(F)c(F)cc3s2)ccc1NC(=O)C(C)N (centres unmarked) [Iar, 5,6-Difluoro-2-(4′-amino-3′-methylphenyl)benzothiazole Alany Amide Hydrochloride Salt]
- IC50 ([1]; n=8): 0.0331 µM
- IC50 ([2]; n=8): 0.217 µM

Molecule: Cc1cc(-c2nc3cc(F)c(F)cc3s2)ccc1NC(=O)C(N)CCCCN (centres unmarked) [Ias, 5,6-Difluoro-2-(4′-amino-3′-methylphenyl)benzothiazole Lysyl Amide Dihydrochloride]
- IC50 ([1]; n=8): 0.0307 µM
- IC50 ([2]; n=8): 0.302 µM

Molecule: Cc1cc(-c2nc3ccc(F)cc3s2)ccc1N [Ib, 6-Fluoro-2-(4′-amino-3′-methylphenyl)benzothiazole]
- IC50 ([1]; Homo sapiens, MCF7, 72 h, n=8): < 0.0001 µM
- IC50 ([2]; 72 h, n=8): 0.00011 µM
- biphasic dose-response (second growth phase) [3]: the biphasic response is eliminated
- tumour growth inhibition, COLO205 xenografts (FIG. 2) [4]: tumour growth inhibition observed
- blood parameters (white blood cell and platelet counts) and level of liver transaminases [5]: not adversely affected
- growth inhibition of MCF-7 xenografts ([6]; given i.p.): Significant growth inhibition
- growth inhibition of MT-1 xenografts compared with same dose of (Ik) ([7]; 12.5 mg/kg): more pronounced growth inhibition
- tumor growth inhibition in MT-1 xenografts ([7]; dose dependence): dose-dependent tumor growth inhibition
- weight loss in MT-1 xenograft study ([7]; dose dependence): weight loss

Molecule: Nc1ccc(-c2nc3c(F)cccc3s2)cc1 [Ic, 4-Fluoro2-(4-aminophenyl)benzothiazole]
- IC50 ([1]; Homo sapiens, MCF7, 72 h, n=8): 0.00854 µM
- IC50 ([2]; 72 h, n=8): 0.0294 µM

Molecule: Nc1ccc(-c2nc3ccc(F)cc3s2)cc1 [Id, 6-Fluoro2-(4′-aminophenyl)benzothiazole]
- IC50 ([1]; Homo sapiens, MCF7, 72 h, n=8): < 0.0001 µM
- IC50 ([2]; 72 h, n=8): 0.0481 µM

Molecule: Cc1cc(-c2nc3c(F)c(F)ccc3s2)ccc1N [Ie, 4,5-Difluoro-2-(4′-amino-3′-methylphenyl)benzothiazole]
- IC50 ([1]; Homo sapiens, MCF7, 72 h, n=8): 0.00064 µM
- IC50 ([2]; 72 h, n=8): 0.00067 µM

Molecule: Cc1cc(-c2nc3c(F)cc(F)cc3s2)ccc1N [If]
- IC50 ([1]; n=8): < 0.0001 µM
- IC50 ([2]; n=8): 0.00535 µM

Molecule: Cc1cc(-c2nc3cc(F)cc(F)c3s2)ccc1N [Ig, 5,7-Difluoro-2-(4′-amino3′-methylphenyl)benzothiazole]
- IC50 ([1]; Homo sapiens, MCF7, 72 h, n=8): 0.0009 µM
- IC50 ([2]; 72 h, n=8): 0.0044 µM

Molecule: Cc1cc(-c2nc3cc(F)c(F)cc3s2)ccc1N [Ii, 5,6-Difluoro-2-(4′-amino-3′-methylphenyl)benzothiazole]
- IC50 ([1]; Homo sapiens, MCF7, 72 h, n=8): < 0.0001 µM
- IC50 ([2]; 72 h, n=8): 0.00355 µM

Molecule: Nc1ccc(-c2nc3cc(F)ccc3s2)cc1 [Il, 5-Fluoro-2-(4′-aminophenyl)benzothiazole]
- IC50 ([1]; Homo sapiens, MCF7, 72 h, n=8): < 0.0001 µM
- IC50 ([2]; 72 h, n=8): < 0.0001 µM

Molecule: Nc1ccc(-c2nc3c(F)cccc3s2)cc1I [Im, 4-Fluoro-2-(4′-amino-3′-iodophenyl)benzothiazole]
- IC50 ([1]; Homo sapiens, MCF7, 72 h, n=8): 0.00788 µM
- IC50 ([2]; 72 h, n=8): 0.00911 µM

Molecule: Nc1ccc(-c2nc3cc(F)ccc3s2)cc1I [In, 5-Fluoro-2-(4′-amino-3′-iodophenyl)benzothiazole]
- IC50 ([1]; Homo sapiens, MCF7, 72 h, n=8): < 0.0001 µM
- IC50 ([2]; 72 h, n=8): < 0.0001 µM

Molecule: Nc1ccc(-c2nc3ccc(F)cc3s2)cc1I [Io, 6-Fluoro-2-(4′-amino-3′-iodophenyl)benzothiazole]
- IC50 ([1]; Homo sapiens, MCF7, 72 h, n=8): < 0.0001 µM
- IC50 ([2]; 72 h, n=8): < 0.0001 µM

Molecule: Nc1ccc(-c2nc3c(F)cccc3s2)cc1Cl [Ip, 4-Fluoro-2-(4′-amino-3′-chlorophenyl)benzothiazole]
- IC50 ([1]; Homo sapiens, MCF7, 72 h, n=8): 0.00095 µM
- IC50 ([2]; 72 h, n=8): 0.00193 µM

Molecule: Nc1ccc(-c2nc3cc(F)ccc3s2)cc1Cl [Iq, 5-Fluoro-2-(4′-amino-3′-chlorophenyl)benzothiazole]
- IC50 ([1]; Homo sapiens, MCF7, 72 h, n=8): 0.00709 µM
- IC50 ([2]; 72 h, n=8): 0.0189 µM

Molecule: Nc1ccc(-c2nc3ccc(F)cc3s2)cc1Cl [Ir, 6-Fluoro-2-(4′-amino3′chlorophenYl)bcnzothiazole]
- IC50 ([1]; n=8): 0.00408 µM
- IC50 ([2]; n=8): 0.0117 µM

Molecule: Nc1ccc(-c2nc3c(F)cccc3s2)cc1Br [Is, 4-Fluoro-2-(4′amino-3′-bromophenyl)benzothiazole]
- IC50 ([1]; Homo sapiens, MCF7, 72 h, n=8): 0.0382 µM
- IC50 ([2]; 72 h, n=8): 0.024 µM

Molecule: Nc1ccc(-c2nc3cc(F)ccc3s2)cc1Br [It, 5-Fluoro-2-(4′-amino-3′-bromophenyl)benzothiazole]
- IC50 ([1]; Homo sapiens, MCF7, 72 h, n=8): < 0.0001 µM
- IC50 ([2]; 72 h, n=8): 0.0002 µM

Molecule: Nc1ccc(-c2nc3ccc(F)cc3s2)cc1Br [Iu, 6-Fluoro2-(4′-amino-3′-bromophenyl)benzothiazole]
- IC50 ([1]; Homo sapiens, MCF7, 72 h, n=8): 0.0455 µM
- IC50 ([2]; 72 h, n=8): 0.0687 µM

Molecule: CC(N)C(=O)Nc1ccc(-c2nc3ccccc3s2)cc1.Cl (centres unmarked) [Iv, 2-(4′-Aminophenyl)benzothiazole Alanyl Amide Hydrochloride Salt]
- IC50 ([1]; n=8): 0.06 µM
- IC50 ([2]; n=8): 0.04 µM
- tumour growth inhibition, COLO205 xenografts (FIG. 2) [4]: tumour growth inhibition observed

Molecule: Cc1cc(-c2nc3ccccc3s2)ccc1NC(=O)C(C)N.Cl (centres unmarked) [Iw, 2-(4′-Amino-3′-methylphenyl)benzothiazole Alanyl Amide Hydrochloride Salt]
- IC50 ([1]; n=8): 0.36 µM
- IC50 ([2]; n=8): 0.34 µM
- stability in plasma in vitro [8]: stable
- growth retardation of MCF-7 xenografts compared with (Iz) ([6]; 12.5 mg/kg given i.v.): greater extent of growth retardation
- in vivo growth retardation of MCF-7 xenografts [6]: significant in vivo growth retardation
- in vivo growth retardation of MT-1 xenografts [7]: significant in vivo growth retardation
- tumor growth inhibition in MT-1 xenografts [7, 11]: moderate tumor growth inhibition
- removal from plasma and reconversion to parent compound in vivo [9]: readily removed from such plasma and reconverted to their parent compound in vivo

Molecule: Cc1cc(-c2nc3ccccc3s2)ccc1NC(=O)C(N)CCCCN.Cl.Cl (centres unmarked) [Iz, 2-(4′-Amino-3′-methylphenyl)benzothiazole Lysyl Amide Dihydrochioride Salt]
- IC50 ([1]; n=8): 0.08 µM
- IC50 ([2]; n=8): 0.07 µM
- stability in plasma in vitro [8]: stable
- body weight loss ([6]; prodrug, dose dependence): Dose-dependent body weight loss
- in vivo growth retardation of MCF-7 xenografts [6]: significant in vivo growth retardation
- in vivo growth retardation of MT-1 xenografts [7]: significant in vivo growth retardation
- tumor growth inhibition in MT-1 xenografts [7, 11]: moderate tumor growth inhibition
- removal from plasma and reconversion to parent compound in vivo [9]: readily removed from such plasma and reconverted to their parent compound in vivo
